# Laboratory results published in patent publication US11033539B2, “Compounds of formulas (VII), (VIII), (IX), (XI), (XII), (XIII), and (XIV) as muscarinic receptor 4(M4) antagonists for treating neurological diseases” (Neurocrine Biosciences, Inc., priority 2015, dated 2021).
# Target: human M4 receptor (Homo sapiens (Human), UniProt P08173)
# Assay: Radioligand (tritiated N-methylscopolamine) binding assay, M4
# Settings: Ki against the M4 receptor; membranes from CHO cells expressing human M4; tritiated N-methylscopolamine 1.5 nM; read-out: Ki
# Method: Binding affinity (Ki) of compounds was measured by inhibition of radioligand binding to membranes from CHO cells expressing human M1, M2, M3, M4 and M5 receptors. Membranes were prepared by nitrogen cavitation and differential centrifugation as previously described (Hoare et al., Mol. Pharmacol. 2003 March; 63(3): 751-65). The radioligand employed was tritiated N-methylscopolamine, used at a concentration of 1.5 nM. A dose-response of twelve concentrations of compound was used, ranging from 10 μM to […]. The assay buffer was 50 mM HEPES, 100 mM NaCl, 5 mM MgCl2, 1 mM ethylenediaminetetraacetic acid, pH-adjusted to pH 7.4. Membranes, radioligand and compound were incubated together for 90 minutes at 37° C., in a total volume of 150 μl in a 96-well plate. Receptor-bound radioligand was then collected by harvesting the assay over glass fiber filters pretreated with polyethylenimine to trap the cell membranes, using rapid vacuum filtration. Harvesting and radioactivity counting was conducted as previously described (see, e.g., Hoare et al., Mol. Pharmacol. 2003 63(3):751-65); Erratum at Mol. Pharmacol. 2005 July; 68(1): 260).
# Sequence of human M4 receptor (P08173 whole entry): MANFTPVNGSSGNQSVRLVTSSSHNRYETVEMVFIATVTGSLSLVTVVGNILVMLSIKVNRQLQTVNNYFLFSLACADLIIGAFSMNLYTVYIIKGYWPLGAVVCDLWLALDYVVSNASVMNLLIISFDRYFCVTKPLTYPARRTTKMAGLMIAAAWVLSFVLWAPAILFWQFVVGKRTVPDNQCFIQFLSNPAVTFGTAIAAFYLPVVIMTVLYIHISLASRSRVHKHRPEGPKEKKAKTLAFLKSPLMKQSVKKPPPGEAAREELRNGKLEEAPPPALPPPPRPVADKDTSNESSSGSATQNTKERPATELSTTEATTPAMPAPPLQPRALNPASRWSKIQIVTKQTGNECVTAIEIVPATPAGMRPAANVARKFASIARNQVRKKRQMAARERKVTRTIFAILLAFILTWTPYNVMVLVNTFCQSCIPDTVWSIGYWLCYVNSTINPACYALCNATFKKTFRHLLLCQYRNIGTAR
row,Ki,Structure (SMILES)
1,100 to 1000 nM,"Cc1nc(-c2ccc(Cl)cc2)sc1C(=O)NCCC1CCN(Cc2ccccc2)CC1 [9-4, N-[2-(1-benzylpiperidin-4-yl)ethyl]-2-(4-chlorophenyl)-4-methyl-1,3-thiazole-5-carboxamide]"
2,10 to 100 nM,"N#Cc1cc(N2CCC(O)(C(=O)NCCC3CCN(Cc4ccccc4)CC3)CC2)ccc1OC(F)(F)F [10-36, N-[2-(1-benzylpiperidin-4-yl)ethyl]-1-[3-cyano-4-(trifluoromethoxy)phenyl]-4-hydroxypiperidine-4-carboxamide]"
3,100 to 1000 nM,"O=C(OCCC1CCN(Cc2ccccc2)CC1)N1CCN(c2ccc(F)cc2)CC1 [12-3, 2-(1-benzylpiperidin-4-yl)ethyl 4-(4-fluorophenyl)piperazine-1-carboxylate]"
4,10 to 100 nM,"Cc1nc(CN2CCC(CCNC(=O)N3CCN(c4cc(F)c(F)c(F)c4)C[C@H]3C)CC2)cs1 [6-12, (2R)-2-methyl-N-(2-{1-[(2-methyl-1,3-thiazol-4-yl)methyl]piperidin-4-yl}ethyl)-4-(3,4,5-trifluorophenyl)piperazine-1-carboxamide]"
5,100 to 1000 nM,"Cc1cncc(N2CCN(C(=O)NCCC3CCN(Cc4ccccc4)CC3)[C@H](C)C2)c1 [4-63, (2R)-N-[2-(1-benzylpiperidin-4-yl)ethyl]-2-methyl-4-(5-methylpyridin-3-yl)piperazine-1-carboxamide]"
6,100 to 1000 nM,"COc1ccnc(N2CCN(C(=O)NCCC3CCN(Cc4ccccc4)CC3)[C@H](C)C2)n1 [4-2, (2R)-N-[2-(1-benzylpiperidin-4-yl)ethyl]-4-(4-methoxypyrimidin-2-yl)-2-methylpiperazine-1-carboxamide]"
7,100 to 1000 nM,"C[C@@H]1CN(c2cnc(C#N)nc2)C[C@H](C)N1C(=O)NCCC1CCN(Cc2ccccc2)CC1 [23-1, (2S,6R)-N-[2-(1-benzylpiperidin-4-yl)ethyl]-4-(2-cyanopyrimidin-5-yl)-2,6-dimethylpiperazine-1-carboxamide]"
8,10 to 100 nM,"C[C@@H]1CN(c2cc(F)c(F)c(F)c2)CCN1C(=O)NCCC1CCN(Cc2cccc(C#N)c2)CC1 [6-18, (2R)-N-(2-{1-[(3-cyanophenyl)methyl]piperidin-4-yl}ethyl)-2-methyl-4-(3,4,5-trifluorophenyl)piperazine-1-carboxamide]"
9,100 to 1000 nM,"C[C@@H]1CN(c2ccccc2F)CCN1C(=O)NCCC1CCN(Cc2ccccc2)CC1 [4-49, (2R)-N-[2-(1-benzylpiperidin-4-yl)ethyl]-4-(2-fluorophenyl)-2-methylpiperazine-1-carboxamide]"
10,100 to 1000 nM,"N#Cc1cnc(N2CCN(C(=O)NCCC3CCN(Cc4ccccc4)CC3)C[C@H]2CO)nc1 [5-25, (3S)-N-[2-(1-benzylpiperidin-4-yl)ethyl]-4-(5-cyanopyrimidin-2-yl)-3-(hydroxymethyl)piperazine-1-carboxamide]"
11,10 to 100 nM,"COc1nc(N2C[C@@H](C)N(C(=O)NCCC3CCN(Cc4ccccc4)CC3)[C@@H](C)C2)ncc1C#N [4-69, (2R,6S)-N-[2-(1-benzylpiperidin-4-yl)ethyl]-4-(5-cyano-4-methoxypyrimidin-2-yl)-2,6-dimethylpiperazine-1-carboxamide]"
12,10 to 100 nM,Cc1c(C(=O)NCCC2CCN(Cc3ccccc3)CC2)cnc2cc(-c3ccc(OC(F)(F)F)cc3)nn12 [18-13]
13,100 to 1000 nM,"N#Cc1cccc(N2CCN(C(=O)NCCC3CCN(Cc4ccccc4)CC3)CC2)c1 [8-25, N-[2-(1-benzylpiperidin-4-yl)ethyl]-4-(3-cyanophenyl)piperazine-1-carboxamide]"
14,10 to 100 nM,"COc1nc(N2CCN(C(=O)NCCC3CCN(Cc4ccccc4)CC3)[C@H](C)C2)ncc1C#N [4-26, (2R)-N-[2-(1-benzylpiperidin-4-yl)ethyl]-4-(5-cyano-4-methoxypyrimidin-2-yl)-2-methylpiperazine-1-carboxamide]"
15,100 to 1000 nM,"CC1(C(=O)NCCC2CCN(Cc3ccccc3)CC2)CCN(c2ccccc2OC(F)(F)F)CC1 [10-4, N-[2-(1-benzylpiperidin-4-yl)ethyl]-4-methyl-1-[2-(trifluoromethoxy)phenyl]piperidine-4-carboxamide]"
16,100 to 1000 nM,"COc1cccc(N2CCN(C(=O)NCCC3CCN(Cc4ccccc4)CC3)[C@H](C)C2)n1 [4-51, (2R)-N-[2-(1-benzylpiperidin-4-yl)ethyl]-4-(6-methoxypyridin-2-yl)-2-methylpiperazine-1-carboxamide]"
17,10 to 100 nM,"C[C@@H]1CN(c2nc(F)c(F)c(F)n2)CCN1C(=O)NCCC1CCN(Cc2ccccc2)CC1 [5-6, (2R)-N-[2-(1-benzylpiperidin-4-yl)ethyl]-2-methyl-4-(trifluoropyrimidin-2-yl)piperazine-1-carboxamide]"
18,100 to 1000 nM,COc1cc(C)c(-c2cc3ncc(C(=O)NCCC4CCN(Cc5ccccc5)CC4)c(C)n3n2)cn1 [18-19]
19,100 to 1000 nM,"N#Cc1cc(N2CCN(C(=O)OCCC3CCN(Cc4ccccc4)CC3)CC2)ccc1F [12-10, 2-(1-benzylpiperidin-4-yl)ethyl 4-(3-cyano-4-fluorophenyl)piperazine-1-carboxylate]"

row,Ki,Structure (SMILES)
1,100 to 1000 nM,"O=C(NCCC1CCN(Cc2ccccc2)CC1)C1(O)CCN(c2cccc(OC(F)(F)F)c2)CC1 [10-62, N-[2-(1-benzylpiperidin-4-yl)ethyl]-4-hydroxy-1-[3-(trifluoromethoxy)phenyl]piperidine-4-carboxamide]"
2,100 to 1000 nM,CCN(C)C(=O)c1cc(C)nc(N2CCN(C(=O)NCCC3CCN(Cc4ccccc4)CC3)[C@H](C)C2)n1 [27-18]
3,10 to 100 nM,COc1ccccc1-c1cc2ncc(C(=O)NCCC3CCN(Cc4ccccc4)CC3)c(C)n2n1 [18-9]
4,10 to 100 nM,C[C@@H]1CN(c2cc(F)c(F)cc2F)C[C@H](C)N1C(=O)NCCC1CCN(Cc2ccccc2)CC1 [22-6]
5,100 to 1000 nM,Cc1c(C(=O)NCCC2CCN(Cc3ccccc3)CC2)cnc2cc(-c3ccc(C#N)cc3)nn12 [18-3]
6,10 to 100 nM,"O=C(NCCC1CCN(Cc2ccccc2)CC1)c1ccc(-c2ccc(F)cc2)cc1 [9-41, N-[2-(1-benzylpiperidin-4-yl)ethyl]-4-(4-fluorophenyl)benzamide]"
7,10 to 100 nM,"O=C(NCCC1CCN(Cc2ccccc2)CC1)N1CCN(c2cccc(C(F)(F)F)c2)CC1 [8-17, N-[2-(1-benzylpiperidin-4-yl)ethyl]-4-[3-(trifluoromethyl)phenyl]piperazine-1-carboxamide]"
8,10 to 100 nM,"COc1nc(N2CCN(C(=O)NCCC3CCN(Cc4ccccc4)CC3)[C@H](C)C2)ncc1F [4-27, (2R)-N-[2-(1-benzylpiperidin-4-yl)ethyl]-4-(5-fluoro-4-methoxypyrimidin-2-yl)-2-methylpiperazine-1-carboxamide]"
9,100 to 1000 nM,"C[C@@H]1CN(c2cc(F)c(F)c(F)c2)CCN1C(=O)NCCC1CCN(Cc2ccc(OC(F)(F)F)cc2)CC1 [6-24, (2R)-2-methyl-N-[2-(1-{[4-(trifluoromethoxy)phenyl]methyl}piperidin-4-yl)ethyl]-4-(3,4,5-trifluorophenyl)piperazine-1-carboxamide]"
10,100 to 1000 nM,"C[C@@H]1CN(c2ccc(F)c(C#N)c2)CCN1C(=O)N(C)CCC1CCN(Cc2ccccc2)CC1 [3-4, (2R)-N-[2-(1-benzylpiperidin-4-yl)ethyl]-4-(3-cyano-4-fluorophenyl)-N,2-dimethylpiperazine-1-carboxamide]"
11,10 to 100 nM,C[C@@H]1CN(c2cnc(C#N)cn2)CCN1C(=O)NCCC1CCN(Cc2ccccc2)CC1 [22-27]
12,10 to 100 nM,"C[C@@H]1CN(c2ccc(F)cn2)CCN1C(=O)NCCC1CCN(Cc2ccccc2)CC1 [4-46, (2R)-N-[2-(1-benzylpiperidin-4-yl)ethyl]-4-(5-fluoropyridin-2-yl)-2-methylpiperazine-1-carboxamide]"
13,100 to 1000 nM,"O=C(c1ccn2cc(-c3ccc(OC(F)(F)F)cc3)nc2c1)N(C1CC1)C1CCN(Cc2ccccc2)CC1 [9-48, N-(1-benzylpiperidin-4-yl)-N-cyclopropyl-2-[4-(trifluoromethoxy)phenyl]imidazo[1,2-a]pyridine-7-carboxamide]"
14,100 to 1000 nM,"O=C(NCCC1CCN(Cc2ccccc2)CC1)N1CCC(c2ccc(F)cc2)CC1 [8-20, N-[2-(1-benzylpiperidin-4-yl)ethyl]-4-(4-fluorophenyl)piperidine-1-carboxamide]"
15,100 to 1000 nM,"N#Cc1ccc(N2CCN(C(=O)NCCC3CCN(Cc4ccccc4)CC3)CC2)nc1 [8-45, N-[2-(1-benzylpiperidin-4-yl)ethyl]-4-(5-cyanopyridin-2-yl)piperazine-1-carboxamide]"
16,10 to 100 nM,"Cc1cc(CN2CCC(CCNC(=O)N3[C@H](C)CN(c4ncc(C#N)cn4)C[C@@H]3C)CC2)ccc1O [6-57, (2R,6S)-4-(5-cyanopyrimidin-2-yl)-N-(2-{1-[(4-hydroxy-3-methylphenyl)methyl]piperidin-4-yl}ethyl)-2,6-dimethylpiperazine-1-carboxamide]"
17,10 to 100 nM,"C[C@@H]1CN(c2ccc(F)nc2)CCN1C(=O)NCCC1CCN(Cc2ccccc2)CC1 [4-35, (2R)-N-[2-(1-benzylpiperidin-4-yl)ethyl]-4-(6-fluoropyridin-3-yl)-2-methylpiperazine-1-carboxamide]"
18,10 to 100 nM,"C[C@@H]1CN(c2cc(F)ccc2F)CCN1C(=O)NCCC1CCN(Cc2ccccc2)CC1 [4-45, (2R)-N-[2-(1-benzylpiperidin-4-yl)ethyl]-4-(2,5-difluorophenyl)-2-methylpiperazine-1-carboxamide]"
19,10 to 100 nM,"O=C(NCCC1(CO)CCN(Cc2ccccc2)CC1)C1CCN(c2cccc(OC(F)(F)F)c2)CC1 [9-11, N-{2-[1-benzyl-4-(hydroxymethyl)piperidin-4-yl]ethyl}-1-[3-(trifluoromethoxy)phenyl]piperidine-4-carboxamide]"
